Results published in PMC4692446, “Compound K Production from Red Ginseng Extract by β-Glycosidase from Sulfolobus solfataricus Supplemented with α-L-Arabinofuranosidase from Caldicellulosiruptor saccharolyticus” (PLoS ONE, 2015).

Target: T1, SS-bgly (β-glycosidase from Sulfolobus solfataricus) (Saccharolobus solfataricus, UniProt P22498)
T1 construct: gene lacS; full-length gene from genomic DNA in pET-24a, NdeI/BamHI, own stop codon, no tag; E. coli ER2566; heat-treated soluble enzyme (75°C)
T1 sequence (P22498 1-489): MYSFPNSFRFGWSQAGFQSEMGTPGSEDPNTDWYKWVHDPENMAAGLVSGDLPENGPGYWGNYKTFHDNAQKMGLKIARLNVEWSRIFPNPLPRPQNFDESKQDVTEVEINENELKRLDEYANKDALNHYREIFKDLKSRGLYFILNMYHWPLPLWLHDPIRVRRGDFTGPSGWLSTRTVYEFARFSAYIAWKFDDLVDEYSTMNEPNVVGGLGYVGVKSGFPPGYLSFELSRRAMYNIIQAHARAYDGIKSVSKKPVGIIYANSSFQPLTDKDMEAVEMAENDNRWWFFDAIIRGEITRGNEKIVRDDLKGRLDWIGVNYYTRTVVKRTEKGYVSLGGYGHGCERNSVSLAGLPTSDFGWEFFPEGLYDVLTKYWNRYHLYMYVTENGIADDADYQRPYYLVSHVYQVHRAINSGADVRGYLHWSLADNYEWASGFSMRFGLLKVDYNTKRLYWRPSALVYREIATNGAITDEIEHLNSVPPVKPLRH
Assay: TLC of reaction products
Assay type: biochemical
Conditions: 80°C, pH 6.0 citrate/phosphate; SS-bgly alone; product C-Mc

CC(C)=CCC[C@](C)(O[C@@H]1O[C@H](CO[C@@H]2O[C@@H](CO)[C@H](O)[C@H]2O)[C@@H](O)[C@H](O)[C@H]1O)[C@H]1CC[C@]2(C)[C@@H]1[C@H](O)C[C@@H]1[C@@]3(C)CC[C@H](O[C@@H]4O[C@H](CO)[C@@H](O)[C@H](O)[C@H]4O[C@@H]4O[C@H](CO)[C@@H](O)[C@H](O)[C@H]4O)C(C)(C)[C@@H]3CC[C@]12C [Rc, ginsenoside Rc]
TLC of reaction products: whereas only C-Mc was obtained by SS-bgly alone
